The text below walks through data of patent US10231954B2, “Neurodegenerative therapies” (LYTIX BIOPHARMA AS, priority 2014, dated 2019).

Format in all cases: biochemical
One assay has as its target SYK (Homo sapiens, UniProt P43405). Description: Kinase profiling SYK. As to conditions: 100 micromolar inhibitor concentration; 100 is no change; read-out: residual kinase activity, SYK. The text has this: (§1) Any value less that 25 is considered to be highly significant inhibition.
The target in a further assay is JAK2 (Homo sapiens, UniProt O60674). Description: Kinase profiling JAK2. As to conditions: 100 micromolar inhibitor concentration; 100 is no change; read-out: residual kinase activity, JAK2.
Excerpt: as §1

A further assay concerns the target DYRK1A (Homo sapiens, UniProt Q13627). The assay is described as follows: DYRK 1A assay (kinase profiling). Conditions: 100 micromolar inhibitor concentration; 100 is no change; read-out: residual kinase activity, DYRK1A. The protocol: Assays are stopped by addition of 5 μl of 0.5 M (3%) orthophosphoric acid and then harvested onto P81 Unifilter plates with a wash buffer of 50 mM orthophosphoric acid.
as §1

A further assay concerns the target PKCa (Homo sapiens, UniProt P17252). Description: Kinase profiling PKCa. Conditions: 100 micromolar inhibitor concentration; 100 is no change; read-out: residual kinase activity, PKCa.
Excerpt: as §1

The subject of the next assay is CK2. The assay is described as follows: Kinase profiling CK2. Conditions: 100 micromolar inhibitor concentration; 100 is no change.
Excerpt: as §1

A further assay deals with PKA (Homo sapiens, UniProt P17612). Description: Kinase profiling PKA. Conditions: 100 micromolar inhibitor concentration; 100 is no change; read-out: residual kinase activity, PKA.
Excerpt: as §1

A further assay addresses HER4 (Homo sapiens, UniProt Q15303). The assay is described as follows: Kinase profiling HER4. As to conditions: 100 micromolar inhibitor concentration; 100 is no change; read-out: residual kinase activity, HER4.
Excerpt: as §1

For another assay, the target named is PKBb (Homo sapiens, UniProt P31751). Description: Kinase profiling PKBb. Conditions: read-out: residual kinase activity, PKBb.
PKBb, sequence (P31751 whole entry): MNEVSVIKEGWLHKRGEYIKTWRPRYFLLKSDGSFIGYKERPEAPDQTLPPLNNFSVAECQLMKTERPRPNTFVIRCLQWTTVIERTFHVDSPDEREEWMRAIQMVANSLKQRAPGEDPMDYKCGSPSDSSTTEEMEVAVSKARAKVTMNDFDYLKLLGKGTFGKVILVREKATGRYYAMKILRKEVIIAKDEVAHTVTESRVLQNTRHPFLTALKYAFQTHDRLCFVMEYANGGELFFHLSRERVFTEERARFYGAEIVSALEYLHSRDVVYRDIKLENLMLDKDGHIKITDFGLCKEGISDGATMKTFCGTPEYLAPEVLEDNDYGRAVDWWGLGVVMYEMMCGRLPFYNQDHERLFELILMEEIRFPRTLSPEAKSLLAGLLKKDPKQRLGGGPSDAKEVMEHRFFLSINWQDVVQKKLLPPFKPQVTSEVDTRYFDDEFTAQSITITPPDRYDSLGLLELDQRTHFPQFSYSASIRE
Excerpt: as §1

The next assay deals with MSK1 (Homo sapiens, UniProt O75582). The assay is described as follows: Kinase profiling MSK1. As to conditions: 100 micromolar inhibitor concentration; 100 is no change; read-out: residual kinase activity, MSK1.
MSK1, sequence (O75582 whole entry, species assumed): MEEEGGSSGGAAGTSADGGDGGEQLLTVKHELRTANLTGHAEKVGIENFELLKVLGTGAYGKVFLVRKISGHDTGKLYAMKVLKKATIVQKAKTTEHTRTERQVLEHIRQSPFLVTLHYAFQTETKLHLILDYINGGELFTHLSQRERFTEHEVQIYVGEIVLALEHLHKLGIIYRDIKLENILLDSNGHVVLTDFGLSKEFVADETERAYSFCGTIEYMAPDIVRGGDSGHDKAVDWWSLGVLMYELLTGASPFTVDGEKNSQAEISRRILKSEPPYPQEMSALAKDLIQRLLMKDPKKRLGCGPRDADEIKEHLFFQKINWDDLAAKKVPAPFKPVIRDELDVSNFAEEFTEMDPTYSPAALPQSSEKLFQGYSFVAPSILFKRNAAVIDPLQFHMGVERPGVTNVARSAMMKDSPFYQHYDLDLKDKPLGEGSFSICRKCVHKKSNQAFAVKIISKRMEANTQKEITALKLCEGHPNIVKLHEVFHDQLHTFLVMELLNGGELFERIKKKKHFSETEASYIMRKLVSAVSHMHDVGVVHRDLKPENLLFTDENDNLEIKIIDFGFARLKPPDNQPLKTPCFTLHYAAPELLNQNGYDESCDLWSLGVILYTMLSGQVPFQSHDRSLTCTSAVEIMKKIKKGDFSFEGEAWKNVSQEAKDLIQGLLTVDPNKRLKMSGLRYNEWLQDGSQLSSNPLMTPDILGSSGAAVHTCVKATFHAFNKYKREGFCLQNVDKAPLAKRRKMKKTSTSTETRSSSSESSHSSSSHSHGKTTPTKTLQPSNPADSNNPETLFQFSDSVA
Excerpt: as §1

Another assay deals with EPH-A2 (Homo sapiens, UniProt P29317). Description: Kinase profiling EPH-A2. Conditions: 100 micromolar inhibitor concentration; 100 is no change; read-out: residual kinase activity, EPH-A2.
Excerpt: as §1

Another assay has as its target Lck (Homo sapiens, UniProt P06239). The assay is described as follows: Kinase profiling Lck. Conditions: 100 micromolar inhibitor concentration; 100 is no change; read-out: residual kinase activity, Lck.
Excerpt: as §1

A further assay deals with ERK1 (Homo sapiens, UniProt P27361). Description: Kinase profiling ERK1. Conditions: 100 micromolar inhibitor concentration; 100 is no change; read-out: residual kinase activity, ERK1.
ERK1, sequence (P27361 whole entry, species assumed): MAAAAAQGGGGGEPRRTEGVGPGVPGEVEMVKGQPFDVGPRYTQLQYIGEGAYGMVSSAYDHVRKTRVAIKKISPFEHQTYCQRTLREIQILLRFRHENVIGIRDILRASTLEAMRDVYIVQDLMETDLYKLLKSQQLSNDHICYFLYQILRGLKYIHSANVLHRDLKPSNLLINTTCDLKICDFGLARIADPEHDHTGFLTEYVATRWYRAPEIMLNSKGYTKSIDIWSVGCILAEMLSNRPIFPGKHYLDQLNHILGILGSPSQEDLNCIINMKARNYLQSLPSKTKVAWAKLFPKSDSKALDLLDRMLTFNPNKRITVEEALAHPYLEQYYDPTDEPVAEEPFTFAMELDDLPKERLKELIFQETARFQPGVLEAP
Excerpt: as §1

The target in a further assay is T1, TTK (Homo sapiens, UniProt P33981).
T1 sequence (P33981 1-857): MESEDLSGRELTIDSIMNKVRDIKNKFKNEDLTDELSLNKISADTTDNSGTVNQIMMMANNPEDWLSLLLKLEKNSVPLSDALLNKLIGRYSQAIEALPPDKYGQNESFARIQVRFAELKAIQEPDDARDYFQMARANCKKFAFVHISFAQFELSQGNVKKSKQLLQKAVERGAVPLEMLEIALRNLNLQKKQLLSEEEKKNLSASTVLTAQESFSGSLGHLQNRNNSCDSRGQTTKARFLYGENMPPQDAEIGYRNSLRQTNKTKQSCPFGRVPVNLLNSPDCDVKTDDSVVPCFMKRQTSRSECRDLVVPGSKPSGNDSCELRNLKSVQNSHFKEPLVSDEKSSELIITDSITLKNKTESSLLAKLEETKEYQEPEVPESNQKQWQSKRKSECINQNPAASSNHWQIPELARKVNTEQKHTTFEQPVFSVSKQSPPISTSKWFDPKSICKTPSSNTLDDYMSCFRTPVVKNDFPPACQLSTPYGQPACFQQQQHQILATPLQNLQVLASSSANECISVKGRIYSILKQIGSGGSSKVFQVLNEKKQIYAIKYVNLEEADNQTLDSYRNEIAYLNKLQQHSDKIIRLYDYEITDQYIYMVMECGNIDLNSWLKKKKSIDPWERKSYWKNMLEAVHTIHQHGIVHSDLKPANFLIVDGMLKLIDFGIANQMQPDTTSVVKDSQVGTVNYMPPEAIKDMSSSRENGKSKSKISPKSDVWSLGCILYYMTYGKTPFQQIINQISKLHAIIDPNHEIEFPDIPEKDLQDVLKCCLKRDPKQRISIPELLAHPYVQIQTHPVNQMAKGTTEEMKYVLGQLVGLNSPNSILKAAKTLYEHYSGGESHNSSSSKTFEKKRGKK
Description: Kinase profiling TTK. Conditions: 100 micromolar inhibitor concentration; 100 is no change; read-out: residual kinase activity, TTK.
Excerpt: as §1

A further assay deals with T2, p38g MAPK (Homo sapiens, UniProt P53778).
T2 sequence (P53778 1-367): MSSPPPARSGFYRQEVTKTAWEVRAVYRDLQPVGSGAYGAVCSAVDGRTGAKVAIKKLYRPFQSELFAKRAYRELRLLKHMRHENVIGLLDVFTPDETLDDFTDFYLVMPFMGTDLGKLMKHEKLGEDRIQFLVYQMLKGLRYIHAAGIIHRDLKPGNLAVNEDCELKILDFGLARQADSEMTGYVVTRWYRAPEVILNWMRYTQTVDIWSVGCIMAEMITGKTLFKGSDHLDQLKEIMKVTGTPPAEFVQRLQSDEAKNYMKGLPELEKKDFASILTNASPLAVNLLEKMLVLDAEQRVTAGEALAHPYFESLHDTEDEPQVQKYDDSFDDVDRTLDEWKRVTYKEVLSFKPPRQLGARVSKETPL
The assay is described as follows: Kinase profiling p38g MAPK. Conditions: 100 micromolar inhibitor concentration; 100 is no change; read-out: residual kinase activity, p38g MAPK.
Excerpt: as §1

Another assay concerns the target IGF-1R (Homo sapiens, UniProt P08069). Description: Kinase profiling IGF-1R. As to conditions: 100 micromolar inhibitor concentration; 100 is no change; read-out: residual kinase activity, IGF-1R.
Excerpt: as §1

For another assay, the target named is ERK2 (Homo sapiens, UniProt P28482). The assay is described as follows: Kinase profiling ERK2. Conditions: 100 micromolar inhibitor concentration; 100 is no change; read-out: residual kinase activity, ERK2.
ERK2, sequence (P28482 whole entry, species assumed): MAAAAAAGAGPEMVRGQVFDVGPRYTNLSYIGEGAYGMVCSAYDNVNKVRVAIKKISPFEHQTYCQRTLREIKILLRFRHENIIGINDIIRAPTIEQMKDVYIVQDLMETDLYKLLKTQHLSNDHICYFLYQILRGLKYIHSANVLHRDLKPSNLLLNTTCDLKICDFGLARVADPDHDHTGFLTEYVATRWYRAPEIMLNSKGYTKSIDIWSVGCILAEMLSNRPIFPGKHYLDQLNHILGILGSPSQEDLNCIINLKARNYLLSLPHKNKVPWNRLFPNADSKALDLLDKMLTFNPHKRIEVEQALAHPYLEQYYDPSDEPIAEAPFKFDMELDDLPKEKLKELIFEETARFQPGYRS
Excerpt: as §1

Another assay addresses NEK6 (Homo sapiens, UniProt Q9HC98). The assay is described as follows: Kinase profiling NEK6. As to conditions: 100 micromolar inhibitor concentration; 100 is no change; read-out: residual kinase activity, NEK6.
Excerpt: as §1

The target of a further assay is T3, p38d MAPK (Homo sapiens, UniProt O15264).
T3 sequence (O15264 1-365): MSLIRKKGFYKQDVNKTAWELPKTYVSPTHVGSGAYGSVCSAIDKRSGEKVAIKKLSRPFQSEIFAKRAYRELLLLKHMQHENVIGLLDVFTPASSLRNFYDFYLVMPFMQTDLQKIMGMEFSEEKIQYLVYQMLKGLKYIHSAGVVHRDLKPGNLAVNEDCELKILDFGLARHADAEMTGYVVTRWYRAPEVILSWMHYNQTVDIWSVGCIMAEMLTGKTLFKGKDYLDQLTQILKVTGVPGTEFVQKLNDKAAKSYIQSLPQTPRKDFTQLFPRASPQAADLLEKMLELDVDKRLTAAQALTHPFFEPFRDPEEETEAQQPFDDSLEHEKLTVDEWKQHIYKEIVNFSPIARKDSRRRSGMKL
Description: Kinase profiling p38d MAPK. Conditions: 100 micromolar inhibitor concentration; 100 is no change; read-out: residual kinase activity, p38d MAPK.
Excerpt: as §1

The target of a further assay is JNK2 (Homo sapiens, UniProt P45984). The assay is described as follows: Kinase profiling JNK2. As to conditions: 100 micromolar inhibitor concentration; 100 is no change; read-out: residual kinase activity, JNK2.
JNK2, sequence (P45984 whole entry, species assumed): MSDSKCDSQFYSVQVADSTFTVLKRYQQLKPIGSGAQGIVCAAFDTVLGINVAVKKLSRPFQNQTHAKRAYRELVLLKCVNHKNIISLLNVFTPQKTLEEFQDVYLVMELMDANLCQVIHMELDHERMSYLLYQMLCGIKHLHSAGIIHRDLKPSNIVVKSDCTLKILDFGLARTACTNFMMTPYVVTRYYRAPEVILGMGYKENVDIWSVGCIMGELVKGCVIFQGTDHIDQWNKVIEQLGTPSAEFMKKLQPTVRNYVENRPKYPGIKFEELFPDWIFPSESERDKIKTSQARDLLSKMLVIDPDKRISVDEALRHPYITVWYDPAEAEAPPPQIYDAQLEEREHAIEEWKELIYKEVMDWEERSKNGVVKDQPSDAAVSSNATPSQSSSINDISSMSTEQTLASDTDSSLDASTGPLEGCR
Excerpt: as §1

In the next assay the target is SmMLCK (Homo sapiens, UniProt Q15746). Description: Kinase profiling SmMLCK. As to conditions: 100 micromolar inhibitor concentration; 100 is no change; read-out: residual kinase activity, SmMLCK.
SmMLCK, sequence (Q15746 923-1914): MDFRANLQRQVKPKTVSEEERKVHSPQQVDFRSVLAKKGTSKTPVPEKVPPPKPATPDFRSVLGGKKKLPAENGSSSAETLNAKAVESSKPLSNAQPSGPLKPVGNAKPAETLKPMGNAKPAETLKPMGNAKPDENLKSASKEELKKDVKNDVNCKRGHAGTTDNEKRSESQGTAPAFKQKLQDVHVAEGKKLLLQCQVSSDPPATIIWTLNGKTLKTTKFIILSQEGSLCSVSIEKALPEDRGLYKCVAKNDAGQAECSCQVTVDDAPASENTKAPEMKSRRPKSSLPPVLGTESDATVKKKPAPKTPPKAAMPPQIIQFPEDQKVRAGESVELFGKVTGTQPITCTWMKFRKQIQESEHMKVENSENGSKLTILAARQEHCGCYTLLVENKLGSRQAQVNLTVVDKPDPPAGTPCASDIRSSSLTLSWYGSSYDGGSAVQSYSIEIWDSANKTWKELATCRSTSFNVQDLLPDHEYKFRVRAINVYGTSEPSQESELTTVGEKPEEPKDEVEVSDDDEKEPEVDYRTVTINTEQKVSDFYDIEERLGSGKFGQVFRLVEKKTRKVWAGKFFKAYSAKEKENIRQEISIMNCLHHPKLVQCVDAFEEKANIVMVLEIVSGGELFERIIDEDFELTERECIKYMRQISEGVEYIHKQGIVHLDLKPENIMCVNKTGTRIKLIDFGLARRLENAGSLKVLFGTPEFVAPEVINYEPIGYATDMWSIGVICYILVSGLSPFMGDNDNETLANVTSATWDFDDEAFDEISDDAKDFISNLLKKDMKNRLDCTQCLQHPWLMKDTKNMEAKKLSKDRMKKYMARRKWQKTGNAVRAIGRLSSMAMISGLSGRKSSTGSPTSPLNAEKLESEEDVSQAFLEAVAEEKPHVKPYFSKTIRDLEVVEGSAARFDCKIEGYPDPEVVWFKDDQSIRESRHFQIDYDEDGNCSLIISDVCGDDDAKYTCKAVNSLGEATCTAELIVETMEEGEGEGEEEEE
In the next assay the target is RSK1 (Homo sapiens, UniProt Q15418). The assay is described as follows: Kinase profiling RSK1. As to conditions: 100 micromolar inhibitor concentration; 100 is no change; read-out: residual kinase activity, RSK1.
RSK1, sequence (Q15418 whole entry, species assumed): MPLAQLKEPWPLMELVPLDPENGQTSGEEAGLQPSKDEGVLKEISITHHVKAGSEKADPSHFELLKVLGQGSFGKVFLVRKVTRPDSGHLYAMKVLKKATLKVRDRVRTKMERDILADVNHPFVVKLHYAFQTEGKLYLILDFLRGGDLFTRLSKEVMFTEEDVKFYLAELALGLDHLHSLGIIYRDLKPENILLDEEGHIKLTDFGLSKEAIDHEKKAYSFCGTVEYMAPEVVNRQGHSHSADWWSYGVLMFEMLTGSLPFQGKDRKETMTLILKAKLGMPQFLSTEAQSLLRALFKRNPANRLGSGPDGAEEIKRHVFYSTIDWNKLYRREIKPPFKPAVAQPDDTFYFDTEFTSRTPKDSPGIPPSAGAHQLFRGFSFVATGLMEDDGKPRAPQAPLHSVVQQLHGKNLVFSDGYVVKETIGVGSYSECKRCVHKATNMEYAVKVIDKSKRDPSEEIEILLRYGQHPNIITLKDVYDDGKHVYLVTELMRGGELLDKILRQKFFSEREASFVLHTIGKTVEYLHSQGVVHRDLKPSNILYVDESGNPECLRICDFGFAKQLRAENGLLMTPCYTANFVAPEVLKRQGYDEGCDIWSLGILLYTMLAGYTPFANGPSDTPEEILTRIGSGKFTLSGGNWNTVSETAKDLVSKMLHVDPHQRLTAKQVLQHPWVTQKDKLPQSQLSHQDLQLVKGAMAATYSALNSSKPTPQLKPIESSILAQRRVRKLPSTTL
Excerpt: as §1

Structures are written as SMILES.

In the case of `CC(=O)Nc1nc2ccc(O)cc2s1` [Compound 01-71], the remaining activity at 100 µM at SYK came to 71%; at JAK2 it was 43%; at DYRK1A, 20%; at PKCa, 77%; at PKA, 70%; at HER4 it was 36%. Moreover, the remaining activity at 100 µM on PKBb turned out to be 57%; on MSK1, 31%; at EPH-A2, 66%; at Lck, 192%; at ERK1 it was 65%; on TTK, 31%. The remaining activity at 100 µM on p38g MAPK stood at 84%; on IGF-1R, 18%; at ERK2 it was 83%; at NEK6, 75%; on p38d MAPK, 43%; at JNK2, 82%. In addition, the remaining activity at 100 µM was found to be 39% at SmMLCK and 25% on RSK1. The “residual kinase activity, CK2” value in the assay on CK2 came out at 23.
For `CC(=O)Nc1nc2ccc(C(F)(F)F)cc2s1` [Compound 01-90], the remaining activity at 100 µM was 100% at SYK; 73% on JAK2; 8% on DYRK1A; 101% at PKCa; 87% at PKA; 97% on HER4. Moreover, the remaining activity at 100 µM at PKBb is 100%; on MSK1, 87%; at EPH-A2, 67%; at Lck, 53%; on ERK1, 100%; at TTK, 49%. Moreover, the remaining activity at 100 µM at p38g MAPK turned out to be 101%; at IGF-1R, 84%; at ERK2 it was 102%; on NEK6 it was 107%; at p38d MAPK it was 76%; at JNK2, 87%. Also, the remaining activity at 100 µM on SmMLCK is 80%; on RSK1, 74%. The “residual kinase activity, CK2” value in the assay on CK2 came to 92.
Consider `CC(=O)Nc1nc2ccc(C#N)cc2s1` [Compound 01-94], for which the remaining activity at 100 µM came out at 86% at SYK; 33% on JAK2; 9% on DYRK1A; 93% on PKCa; 93% on PKA; 90% on HER4. Also, the remaining activity at 100 µM at PKBb worked out at 98%; on MSK1 it was 81%; on EPH-A2, 73%; on Lck it was 168%; at ERK1 it was 97%; at TTK, 33%. Moreover, the remaining activity at 100 µM at p38g MAPK was found to be 82%; on IGF-1R, 78%; on ERK2 it was 91%; at NEK6 it was 86%; at p38d MAPK, 69%; on JNK2, 82%. Besides, the results for the remaining activity at 100 µM on SmMLCK and at RSK1 were 54% and 51%, respectively. In the assay on CK2, the “residual kinase activity, CK2” value was 66.
